# Measurements published in patent US20260285850A1, “SUBSTITUTED OXAZOLIDINONES AND IMIDAZOLINONES AS HERBICIDES” (FMC CORPORATION, priority 2023, published 2026).
# Experiments:
# Assay type in all cases: in vivo
# [1] = test system: barnyardgrass (Echinochloa crus-galli); experiment: Test A preemergence soil spray, visual injury rating 0-100; settings: 10 days, 0 = no effect, 100 = complete control
# Outline: (§1)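 Greenhouse test: loam/sand pots received a surfactant-containing formulation, as a preemergence directed soil spray or a postemergence spray on young plants. Injury was judged visually at day 10 relative to untreated controls.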
# [2] = test system: blackgrass (Alopecurus myosuroides); experiment: as above; settings: 10 days, 0 = no effect, 100 = complete control
# Outline: as §1
# corn (Zea mays) [3] = experiment: as above; settings: 10 days, 0 = no effect, 100 = complete control
# Outline: as §1
# [4] = test system: green foxtail (Setaria viridis); experiment: as above; settings: 10 days, 0 = no effect, 100 = complete control
# Outline: as §1
# kochia (Bassia scoparia) [5] = experiment: as above; settings: 10 days, 0 = no effect, 100 = complete control
# Outline: as §1
# [6] = test system: oat, wild (wild oat, Avena fatua); experiment: as above; settings: 10 days, 0 = no effect, 100 = complete control
# Outline: as §1
# [7] = test system: palmer (palmer amaranth, palmer pigweed, Amaranthus palmeri); experiment: as above; settings: 10 days, 0 = no effect, 100 = complete control
# Outline: as §1
# [8] = test system: ragweed (common ragweed, Ambrosia artemisiifolia); experiment: as above; settings: 10 days, 0 = no effect, 100 = complete control
# Outline: as §1
# [9] = test system: ryegrass, Italian (italian ryegrass, Lolium multiflorum); experiment: as above; settings: 10 days, 0 = no effect, 100 = complete control
# Outline: as §1
# soybean (Glycine max) [10] = experiment: as above; settings: 10 days, 0 = no effect, 100 = complete control
# Outline: as §1
# [11] = test system: wheat (Triticum aestivum); experiment: as above; settings: 10 days, 0 = no effect, 100 = complete control
# Outline: as §1
# [12] = test system: barnyardgrass (Echinochloa crus-galli); experiment: Test A postemergence application, visual injury rating 0-100; settings: 10 days
# Text: (§2) Seeds of plant species selected from barnyardgrass (Echinochloa crus-galli), blackgrass (Alopecurus myosuroides), corn (Zea mays), foxtail, giant (giant foxtail, Setaria faberi), green foxtail (Setaria viridis), goosegrass (Eleusine indica), kochia (Bassia scoparia), oat, wild (wild oat, Avena fatua), palmer (palmer amaranth, palmer pigweed, Amaranthus palmeri), ragweed (common ragweed, Ambrosia artemisiifolia), ryegrass, Italian (italian ryegrass, Lolium multiflorum), soybean (Glycine max) and wheat (Triticum aestivum) were planted into a blend of loam soil and sand and treated preemergence with a directed soil spray using test chemicals formulated in a non-phytotoxic solvent mixture which included a surfactant.
# (§3) At the same time, plants selected from these crops and weed species and also galium (catchweed bedstraw, Galium aparine) and horseweed (Erigeron canadensis) were planted in pots containing the same blend of loam soil and sand and treated with postemergence applications of test chemicals formulated in the same manner. Plants ranged in height from 2 to 10 cm and were in the one- to two-leaf stage for the postemergence treatment. Treated plants and untreated controls were maintained in a greenhouse for 10 days, after which time all treated plants were compared to untreated controls and visually evaluated for injury. Plant response ratings, summarized in Table A, are based on a 0 to 100 scale where 0 is no effect and 100 is complete control. A dash (-) response means no test result.
# [13] = test system: blackgrass (Alopecurus myosuroides); experiment: as above; settings: 10 days
# Text: as §2, §3
# corn (Zea mays) [14] = experiment: as above; settings: 10 days
# Text: as §2, §3
# [15] = test system: green foxtail (Setaria viridis); experiment: as above; settings: 10 days
# Text: as §2, §3
# [16] = test system: horseweed (Erigeron canadensis); experiment: as above; settings: 10 days
# Text: as §2, §3
# kochia (Bassia scoparia) [17] = experiment: as above; settings: 10 days
# Text: as §2, §3
# [18] = test system: oat, wild (wild oat, Avena fatua); experiment: as above; settings: 10 days
# Text: as §2, §3
# [19] = test system: palmer (palmer amaranth, palmer pigweed, Amaranthus palmeri); experiment: as above; settings: 10 days
# Text: as §2, §3
# [20] = test system: ragweed (common ragweed, Ambrosia artemisiifolia); experiment: as above; settings: 10 days
# Text: as §2, §3
# [21] = test system: ryegrass, Italian (italian ryegrass, Lolium multiflorum); experiment: as above; settings: 10 days
# Text: as §2, §3
# soybean (Glycine max) [22] = experiment: as above; settings: 10 days
# Text: as §2, §3
# [23] = test system: wheat (Triticum aestivum); experiment: as above; settings: 10 days
# Text: as §2, §3
# [24] = test system: barnyardgrass (Echinochloa crusgalli); experiment: Test B flooded paddy test, visual plant response rating 0-100; settings: 250 g ai/ha, Flood, applied to paddy water, evaluated after 13 days
# Procedure: (§4) Plant species in the flooded paddy test selected from barnyardgrass (Echinochloa crusgalli), ducksalad (Heteranthera limosa), rice (Oryza sativa), and sedge, umbrella (small-flower umbrella sedge, Cyperus difformis) were grown to the 2-leaf stage for testing. At time of treatment, test pots were flooded to 3 cm above the soil surface, treated by application of test compounds directly to the paddy water, and then maintained at that water depth for the duration of the test. Treated plants and controls were maintained in a greenhouse for 13 days, after which time all species were compared to controls and visually evaluated. […] A dash (-) response means no test result.
# [25] = test system: ducksalad (Heteranthera limosa); experiment: as above; settings: 250 g ai/ha, Flood, applied to paddy water, evaluated after 13 days
# Procedure: as §4
# rice (Oryza sativa) = experiment: as above; settings: 250 g ai/ha, Flood, applied to paddy water, evaluated after 13 days
# Procedure: as §4
# [26] = test system: sedge, umbrella (small-flower umbrella sedge, Cyperus difformis); experiment: as above; settings: 250 g ai/ha, Flood, applied to paddy water, evaluated after 13 days
# Procedure: as §4
# [27] = 31 g ai/ha, postemergence, 0 = no effect, 100 = complete control
# [28] = Postemergence, 125 g ai/ha, 0 is no effect, 100 is complete control
smiles,measurement,setting,value
CC1(C(=O)NC2CCC(C(=O)O)C2)CN(c2cc(F)cc(F)c2)C(=O)O1 (centres unmarked) [Compound 9],Barnyardgrass plant response rating (0-100),[1]; 31 g ai/ha,0
same,Barnyardgrass plant response rating (0 to 100 scale),[1]; 125 g ai/ha,50
same,Blackgrass plant response rating (0-100),[2]; 31 g ai/ha,0
same,Blackgrass plant response rating (0 to 100 scale),[2]; 125 g ai/ha,80
same,Corn plant response rating (0-100),corn (Zea mays) [3]; 31 g ai/ha,10
same,Corn plant response rating (0 to 100 scale),corn (Zea mays) [3]; 125 g ai/ha,80
same,"Foxtail, Green plant response rating (0-100)",[4]; 31 g ai/ha,0
same,"Foxtail, Green plant response rating (0 to 100 scale)",[4]; 125 g ai/ha,90
same,Kochia plant response rating (0-100),kochia (Bassia scoparia) [5]; 31 g ai/ha,0
same,Kochia plant response rating (0 to 100 scale),kochia (Bassia scoparia) [5]; 125 g ai/ha,30
same,"Oat, Wild plant response rating (0-100)",[6]; 31 g ai/ha,0
same,"Oat, Wild plant response rating (0 to 100 scale)",[6]; 125 g ai/ha,90
same,"Amaranth, Palmer plant response rating (0-100)",[7]; 31 g ai/ha,0
same,"Amaranth, Palmer plant response rating (0 to 100 scale)",[7]; 125 g ai/ha,10
same,Ragweed plant response rating (0-100),[8]; 31 g ai/ha,0
same,Ragweed plant response rating (0 to 100 scale),[8]; 125 g ai/ha,0
same,"Ryegrass, Italian plant response rating (0-100)",[9]; 31 g ai/ha,0
same,"Ryegrass, Italian plant response rating (0 to 100 scale)",[9]; 125 g ai/ha,90
same,Soybean plant response rating (0-100),soybean (Glycine max) [10]; 31 g ai/ha,0
same,Soybean plant response rating (0 to 100 scale),soybean (Glycine max) [10]; 125 g ai/ha,80
same,Wheat plant response rating (0-100),[11]; 31 g ai/ha,80
same,Wheat plant response rating (0 to 100 scale),[11]; 125 g ai/ha,90
same,Barnyardgrass plant response rating (0-100),[12]; [27],70
same,Barnyardgrass plant response rating (0 to 100 scale),[12]; [28],100
same,Blackgrass plant response rating (0-100),[13]; [27],60
same,Blackgrass plant response rating (0 to 100 scale),[13]; [28],70
same,Corn plant response rating (0-100),corn (Zea mays) [14]; [27],20
same,Corn plant response rating (0 to 100 scale),corn (Zea mays) [14]; [28],100
same,"Foxtail, Green plant response rating (0-100)",[15]; [27],30
same,"Foxtail, Green plant response rating (0 to 100 scale)",[15]; [28],90
same,Horseweed plant response rating (0-100),[16]; [27],0
same,Horseweed plant response rating (0 to 100 scale),[16]; [28],10
same,Kochia plant response rating (0-100),kochia (Bassia scoparia) [17]; [27],50
same,Kochia plant response rating (0 to 100 scale),kochia (Bassia scoparia) [17]; [28],80
same,"Oat, Wild plant response rating (0-100)",[18]; [27],90
same,"Oat, Wild plant response rating (0 to 100 scale)",[18]; [28],90
same,"Amaranth, Palmer plant response rating (0-100)",[19]; [27],10
same,"Amaranth, Palmer / Pigweed, Palmer plant response rating (0 to 100 scale)",[19]; [28],90
same,Ragweed plant response rating (0-100),[20]; [27],0
same,Ragweed plant response rating (0 to 100 scale),[20]; [28],0
same,"Ryegrass, Italian plant response rating (0-100)",[21]; [27],50
same,"Ryegrass, Italian plant response rating (0 to 100 scale)",[21]; [28],80
same,Soybean plant response rating (0-100),soybean (Glycine max) [22]; [27],60
same,Soybean plant response rating (0 to 100 scale),soybean (Glycine max) [22]; [28],70
same,Wheat plant response rating (0-100),[23]; [27],90
same,Wheat plant response rating (0 to 100 scale),[23]; [28],90
same,"Plant response rating, Barnyardgrass (0 to 100 scale, 0 is no effect and 100 is complete control)",[24],0
same,"Plant response rating, Ducksalad (0 to 100 scale, 0 is no effect and 100 is complete control)",[25],0
same,"Plant response rating, Rice (0 to 100 scale, 0 is no effect and 100 is complete control)",rice (Oryza sativa),0
same,"Plant response rating, Sedge, Umbrella (0 to 100 scale, 0 is no effect and 100 is complete control)",[26],0
